# Key:
# [1] = n-Octanol/PBS distribution coefficient (log D); assay type: physicochemical
# Experimental: The n-octanol/PBS distribution coefficient of the five exemplified PSMA-binding agents ^177Lu-Ibu-PSMA, ^177Lu-Ibu-Dα-PSMA, ^177Lu-Ibu-Dβ-PSMA, ^177Lu-Ibu-N-PSMA and ^177Lu-Ibu-DAB-PSMA in a n-octanol/PBS system was performed in a similar manner as previously reported (Benesova, M.; Umbricht, C. A.; Schibli, R.; Müller, C. Albumin-binding PSMA ligands: optimization of the tissue distribution profile. Mol Pharm 2018, 15, (3), 934-946).
# PSMA = target: T1, PSMA (Homo sapiens, UniProt Q04609); assay: Determination of KD values (PSMA-binding affinity); settings: PSMA-binding affinity of the 177Lu radioligand
# T1 construct: expressed in transfected cells; host or cells: PC-3 PIP (PSMA-transfected PC-3 human prostate cancer cells), from Prof; Martin Pomper
# T1 sequence (Q04609 whole entry): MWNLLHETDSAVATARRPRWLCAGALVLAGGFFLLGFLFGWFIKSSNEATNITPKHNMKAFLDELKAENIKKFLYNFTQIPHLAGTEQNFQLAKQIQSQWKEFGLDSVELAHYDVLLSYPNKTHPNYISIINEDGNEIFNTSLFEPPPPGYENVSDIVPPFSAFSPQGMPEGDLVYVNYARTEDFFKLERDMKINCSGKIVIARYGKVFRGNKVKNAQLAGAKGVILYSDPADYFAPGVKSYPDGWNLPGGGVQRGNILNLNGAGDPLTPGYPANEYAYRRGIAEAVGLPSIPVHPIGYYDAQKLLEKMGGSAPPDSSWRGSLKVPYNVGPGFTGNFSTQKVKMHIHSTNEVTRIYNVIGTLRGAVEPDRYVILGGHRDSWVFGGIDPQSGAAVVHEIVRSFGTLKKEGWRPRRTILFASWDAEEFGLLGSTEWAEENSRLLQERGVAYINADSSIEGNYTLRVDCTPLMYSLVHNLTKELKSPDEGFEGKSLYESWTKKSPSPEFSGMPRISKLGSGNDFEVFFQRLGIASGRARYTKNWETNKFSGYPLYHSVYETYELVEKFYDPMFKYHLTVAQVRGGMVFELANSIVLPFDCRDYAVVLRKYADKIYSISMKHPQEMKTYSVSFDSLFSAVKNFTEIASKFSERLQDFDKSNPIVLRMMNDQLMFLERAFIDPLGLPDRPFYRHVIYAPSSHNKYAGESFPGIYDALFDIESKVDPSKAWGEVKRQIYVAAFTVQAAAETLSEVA
# Experimental: The KD values, indicating the PSMA-binding affinity of the novel radioligand, were determined.
# [2] = test system: PC-3 PIP/flu tumor-bearing mice; assay: Biodistribution study in PC-3 PIP/flu tumor-bearing mice; assay type: in vivo, athymic nude Balb/c mice; settings: for Blood / Bone / Heart / Intestines / Kidneys / Liver / Lung / Muscle / Salivary glands / Spleen / Stomach / Tumor-to-blood / Tumor-to-kidney / Tumor-to-liver: PC-3 PIP/flu tumor-bearing mice; for PC-3 flu Tumor: PSMA-negative tumor xenograft; for PC-3 flu Tumor / PC-3 PIP Tumor: mice; for PC-3 PIP Tumor: PSMA-positive tumor xenograft
# Experimental: In vivo experiments were approved by the local veterinarian department and conducted in accordance with the Swiss law of animal protection. Mice were obtained from Charles River Laboratories, Sulzfeld, Germany, at the age of 5-6 weeks. Female, athymic nude Balb/c mice were subcutaneously inoculated with PSMA-positive PC-3 PIP cells (6×10^6 cells in 100 μL Hank's balanced salt solution (HBSS) with Ca^2+/Mg^2+) on the right shoulder and with PSMA-negative PC-3 flu cells (5×10^6 cells in 100 μL HBSS Ca^2+/Mg^2+) on the left shoulder. Two weeks later, the tumors reached a size of about 80-300 mm^3 suitable for the performance of the biodistribution studies.
# Biodistribution studies were performed 12-15 days after PC-3 PIP/flu tumor cell inoculation. […] The radioligands were injected in a lateral tail vein in a volume of 100-200 μL. Mice were euthanized at different time points after injection (p.i.) of the radioligands. Selected tissues and organs were collected, weighed and measured using a γ-counter. The results were decay-corrected and listed as a percentage of the injected activity per gram of tissue mass (% IA/g) (Table 3 and 4).
# Mice were obtained from Charles River Laboratories, Sulzfeld, Germany, at the age of 5-6 weeks. Female, athymic nude BALB/c mice were subcutaneously inoculated with PSMA-positive PC-3 PIP cells (6×10^6 cells in 100 μL Hank's balanced salt solution (HBSS)) on the right shoulder and with PSMA-negative PC-3 flu cells (5×10^6 cells in 100 μL HBSS) on the left shoulder. Two weeks later, the tumors reached a size of about 80-300 mm^3 suitable for the performance of the biodistribution and imaging studies.
# Biodistribution studies were performed 12-15 days after PC-3 PIP/flu tumor cell inoculation. ^177Lu-Ibu-sPSMA was diluted in 0.9% NaCl containing 0.05% bovine serum albumin (BSA) to prevent adhesion to the vial and syringe material. The radioligand was injected in a lateral tail vein in a volume of 100 μL. Mice were euthanized at different time points after injection (p.i.) of the radioligand. Selected tissues and organs were collected, weighed and measured using a γ-counter. The results were decay-corrected and listed as a percentage of the injected activity per gram of tissue mass (% IA/g) (Table 6, FIG. 18).
# Radiolytic stability = assay type: physicochemical; settings: 250 MBq/500 μL saline, room temperature, with or without L-ascorbic acid
# Experimental: Radiolytic stability over time was assessed for Ibu-sPSMA in three independent experiments. For this purpose, Ibu-sPSMA was labeled with ^177Lu in a volume of 120 μL at a specific activity of 50 MBq/nmol with or without the addition of L-ascorbic acid (3 mg). After quality control using HPLC (t=0, radiochemical purity ≥98%), the labeling solutions were diluted with saline to 250 MBq/500 μL and incubated at room temperature. The radioligand's integrity was determined by HPLC after 1 h, 4 h and 24 h incubation time as previously reported (Siwowska et al., Mol. Pharmaceutical 2017, 14, (2), 523-532). The HPLC chromatograms were analyzed by integration of the peaks representing the radiolabeled product, the released ^177Lu as well as degradation products of unknown structure (FIG. 15). A quantitative assessment was performed by expressing the peak area of the intact product as percentage of the sum of integrated peak areas of the entire chromatogram.
structure (smiles),measurement,setting,value
"CC(C)Cc1ccc(C(C)C(=O)NCC[C@H](NC(=O)CN2CCN(CC(=O)O)CCN(CC(=O)O)CCN(CC(=O)O)CC2)C(=O)NCC2CCC(C(=O)N[C@@H](Cc3ccc4ccccc4c3)C(=O)NCCCC[C@H](NC(=O)N[C@@H](CCC(=O)O)C(=O)O)C(=O)O)CC2)cc1 (stereo partly shown) [^177Lu-Ibu-sPSMA, metal not drawn]",logD,[1],-2.43 ± 0.01
same,Kd,PSMA,40 ± 5 nM
same,Blood,[2]; 1 h p.i.,29±4 % IA/g
same,Bone,[2]; 1 h p.i.,3.3 ± 0.4 % IA/g
same,Heart,[2]; 1 h p.i.,9.3 ± 1.5 % IA/g
same,Intestines,[2]; 1 h p.i.,2.9 ± 0.3 % IA/g
same,Kidneys,[2]; 1 h p.i.,114±15 % IA/g
same,Liver,[2]; 1 h p.i.,17±4 % IA/g
same,Lung,[2]; 1 h p.i.,17 ± 3 % IA/g
same,Muscle,[2]; 1 h p.i.,3.1 ± 0.7 % IA/g
same,Salivary glands,[2]; 1 h p.i.,6.6 ± 0.5 % IA/g
same,Spleen,[2]; 1 h p.i.,5.8 ± 1.2 % IA/g
same,Stomach,[2]; 1 h p.i.,2.6 ± 0.5 % IA/g
same,Tumor-to-blood,[2]; 1 h p.i.,2.2 ± 0.1
same,Tumor-to-kidney,[2]; 1 h p.i.,0.56±0.09
same,Tumor-to-liver,[2]; 1 h p.i.,3.7 ± 0.5
same,PC-3 flu Tumor,[2]; 1 h p.i.,5.1 ± 0.7 % IA/g
same,PC-3 PIP Tumor,[2]; 1 h p.i.,63±8 % IA/g
same,Blood,[2]; 4 h p.i.,7.2 ± 0.7 % IA/g
same,Bone,[2]; 4 h p.i.,1.1 ± 0.2 % IA/g
same,Heart,[2]; 4 h p.i.,2.4 ± 0.2 % IA/g
same,Intestines,[2]; 4 h p.i.,1.1 ± 0.2 % IA/g
same,Kidneys,[2]; 4 h p.i.,28 ± 2 % IA/g
same,Liver,[2]; 4 h p.i.,7.2±0.5 % IA/g
same,Lung,[2]; 4 h p.i.,4.9 ± 0.7 % IA/g
same,Muscle,[2]; 4 h p.i.,0.84 ± 0.14 % IA/g
same,Salivary glands,[2]; 4 h p.i.,1.9 ± 0.2 % IA/g
same,Spleen,[2]; 4 h p.i.,2.1 ± 0.3 % IA/g
same,Stomach,[2]; 4 h p.i.,1.3 ± 0.9 % IA/g
same,Tumor-to-blood,[2]; 4 h p.i.,14 ± 3
same,Tumor-to-kidney,[2]; 4 h p.i.,3.6 ± 0.2
same,Tumor-to-liver,[2]; 4 h p.i.,14 ± 2
same,PC-3 flu Tumor,[2]; 4 h p.i.,2.0 ± 0.3 % IA/g
same,PC-3 PIP Tumor,[2]; 4 h p.i.,99 ± 7 % IA/g
same,Blood,[2]; 24 h p.i.,0.76 ± 0.07 % IA/g
same,Bone,[2]; 24 h p.i.,0.27 ± 0.04 % IA/g
same,Heart,[2]; 24 h p.i.,0.39 ± 0.04 % IA/g
same,Intestines,[2]; 24 h p.i.,0.31 ± 0.07 % IA/g
same,Kidneys,[2]; 24 h p.i.,10 ± 2 % IA/g
same,Liver,[2]; 24 h p.i.,0.81 ± 0.09 % IA/g
same,Lung,[2]; 24 h p.i.,0.79 ± 0.07 % IA/g
same,Muscle,[2]; 24 h p.i.,0.14 ± 0.02 % IA/g
same,Salivary glands,[2]; 24 h p.i.,0.37 ± 0.05 % IA/g
same,Spleen,[2]; 24 h p.i.,0.72 ± 0.15 % IA/g
same,Stomach,[2]; 24 h p.i.,0.50 ± 0.19 % IA/g
same,Tumor-to-blood,[2]; 24 h p.i.,173 ± 18
same,Tumor-to-kidney,[2]; 24 h p.i.,13 ± 2
same,Tumor-to-liver,[2]; 24 h p.i.,163 ± 16
same,PC-3 flu Tumor,[2]; 24 h p.i.,0.66 ± 0.07 % IA/g
same,PC-3 PIP Tumor,[2]; 24 h p.i.,132±15 % IA/g
same,Blood,[2]; 96 h p.i.,0.27 ± 0.02 % IA/g
same,Bone,[2]; 96 h p.i.,0.08 ± 0.01 % IA/g
same,Heart,[2]; 96 h p.i.,0.12 ± 0.01 % IA/g
same,Intestines,[2]; 96 h p.i.,0.13 ± 0.03 % IA/g
same,Kidneys,[2]; 96 h p.i.,2.3 ± 0.3 % IA/g
same,Liver,[2]; 96 h p.i.,0.22 ± 0.02 % IA/g
same,Lung,[2]; 96 h p.i.,0.25 ± 0.03 % IA/g
same,Muscle,[2]; 96 h p.i.,0.04 ± 0.02 % IA/g
same,Salivary glands,[2]; 96 h p.i.,0.11 ± 0.02 % IA/g
same,Spleen,[2]; 96 h p.i.,0.22 ± 0.03 % IA/g
same,Stomach,[2]; 96 h p.i.,0.73 ± 0.82 % IA/g
same,Tumor-to-blood,[2]; 96 h p.i.,210 ± 35
same,Tumor-to-kidney,[2]; 96 h p.i.,25 ± 2
same,Tumor-to-liver,[2]; 96 h p.i.,263 ± 42
same,PC-3 flu Tumor,[2]; 96 h p.i.,0.15 ± 0.02 % IA/g
same,PC-3 PIP Tumor,[2]; 96 h p.i.,57±9 % IA/g
same,radiolytic stability (percentage of intact radioligand up to 24 h),Radiolytic stability,significantly more stable than ^177Lu-PSMA-617 and all other ibuprofen-derivatized PSMA radioligands
